Measurements: patent US12527785B2, “Renin-angiotensin-aldosterone system (RAAS) inhibitors in the treatment of pancreatic ductal carcinoma” (OCHSNER CLINIC FOUNDATION, priority 2023, dated 2026)
Like-named read-outs stand apart in the source and are kept apart here.

Tests used:
[1] = 100 mg EMA401 p.o. in men and women; cited from earlier work
[2] = Toxicity, body weight and deaths observed in the in vivo xenograft studies
Source text: (§1) Human PDCA cell line PANC-1 was transduced with pre-made lentiviral vectors encoding luciferase (firefly)/red fluorescent protein (RFP) to enable monitoring of the growth of primary tumor and metastasis. […] For in vivo experiments, Nonobese diabetic/severe combined immunodeficiencyNOD-SCID mice (Jackson Labs, Bar Harbor, ME, or inhouse breeding) were first brought under anesthesia with isoflurane (2.5% in 100% oxygen, 1 L/min) in an induction chamber and maintained under adequate anesthesia (isoflurane inhalation) while being laid on a warming pad throughout the surgical procedure. For tumor generation, 5×10^4 luciferase-tagged PANC-1 cells were co-inoculated with 3×10^5 lymph node stromal cell (LNSC) analog HK cells. The mice received a 0.75-1.2 cm long incision (on the left side of the body slightly medial to the splenic silhouette) to exteriorize the spleen and pancreas. While gently retracting the pancreas laterally, a 30 G needle was inserted along the length of the pancreas from the tail to the pancreatic head region. Then, 10 μl of cell suspension was injected as the needle was withdrawn to the mid-body of the pancreas. The needle was removed, and the area was inspected for leakage and bleeding. The pancreas and spleen were internalized with forceps and the abdominal muscle layer was closed with interrupted stitches (3-0 silk suture). The overlying skin was closed with a second set of interrupted stitches. Buprenorphine SR-LAB was injected subcutaneously immediately after the surgery for pain relief.
After the surgery, tumor growth and metastatic tumor burden were monitored and assessed weekly for luciferase activity by bioluminescence imaging (BLI) using Lago Imaging System (Spectral Instruments Imaging, Tucson, AZ). Mice were anesthetized using isoflurane for all imaging procedures. Mice were administered intraperitoneally with luciferin (10 mg/kg) and imaged in 10-20 minutes for maximum luciferase signal plateau. Images were analyzed using Aura Imaging software. […] […] […] Data was statistically analyzed using t-test, or t-test with Bonferroni correction.

[3] = tested on: PANC-1 tumor orthotopic xenograft; assay: PANC-1 tumor orthotopic xenograft mouse model (BLI tumor burden, tumor weight); format: in vivo; details: for Tumor weight / Tumor weight, mean: 100 mg/kg EMA401, DWK 8.5; for Tumor weight: Table 17A, control 0.9444; for Tumor weight lowered versus control: EMA401 (100 mg/kg); for BLI data, % of control / BLI data, mean: four weeks; for BLI data, mean: control 3.003
Source text: as §1
After the surgery, tumor growth and metastatic tumor burden were monitored and assessed weekly for luciferase activity by bioluminescence imaging (BLI) using Lago Imaging System (Spectral Instruments Imaging, Tucson, AZ). Mice were anesthetized using isoflurane for all imaging procedures. Mice were administered intraperitoneally with luciferin (10 mg/kg) and imaged in 10-20 minutes for maximum luciferase signal plateau. Images were analyzed using Aura Imaging software. Once the BLI levels of xenografted tumor reached 5×10^8 photons (around 7-9 weeks post PANC-1 cell injection), the mice were grouped based on their BLI level and compounds (e.g., drugs) of the present disclosure were given by gavage daily to each group for 4 weeks. […] Upon sacrifice after 4 weeks of treatment, primary tumors and mouse organs were harvested, weighed, imaged, and formalin-fixed for (hematoxylin and eosin) H&E and immunohistochemistry staining. Data was statistically analyzed using t-test, or t-test with Bonferroni correction.

[4] = tested on: PANC-1 cells; assay: WST1 cell proliferation assay, PANC-1 cells; format: cell-based, human; details: 10% FCS-DMEM
Method: (§2) PDA cell line (PANC-1 or HS766T) or patient cancer cells (PaCa9) were trypsinized with 1% trypsin in Hank's Balanced Salt Solution (HBSS), counted, washed, and resuspended in serum free AIM media (ThermoFisher Scientific, Waltham, MA) or complete Dulbecco's Modified Eagle Medium (DMEM) supplemented with 10% fetal bovine serum, […], 100 U/ml of penicillin G, and […] of streptomycin. Cells at a concentration of 2-4×10^4 cells/well in 100 μl culture medium were seeded in triplicate in 96 well plates, then cultured in a humidified incubator at 37° C. and 5% CO2. On the next day, cell supernatant was discarded and compounds (e.g., drugs) of the present disclosure in 200 μl medium were added with the concentrations indicated in the following Examples. After 72 hours of culture, cell proliferation reagent WST1 (20 μl/well, Sigma Aldrich Inc, St. Louis, MO) were added and plates were read using an ELISA reader at 2 hours and 4 hours under the wavelength of 450 nm. The measured absorbance (OD value) was recorded and graphed and statistically analyzed using GraphPad Prism 8, t-test, or t-test with Bonferroni correction.

[5] = tested on: HS766T cells; assay: WST1 cell proliferation assay, HS766T cells; format: cell-based; details: 10% FCS-DMEM
Method: as §2

[6] = tested on: PaCa-9 PDAC patient tumor cells; assay: WST1 cell proliferation assay, PaCa-9 PDAC patient tumor cells; format: cell-based, human; details: 10% FCS-DMEM
Method: as §2, with “Louis, MO) were added and plates were read using an ELISA reader at 2 hours and 4 hours under the wavelength of 450 nm.” left out

[7] = Serum concentration of EMA401 after oral dosing in humans; format: in vivo, human

## COc1ccc2c(c1OCc1ccccc1)C[C@@H](C(=O)O)N(C(=O)C(c1ccccc1)c1ccccc1)C2 [EMA401]
[1]
  Serum concentration: 1000 ng/mL
[2]; 100 mg/kg EMA401 for 8 weeks
  End of study body weights versus control: not different
[2]; 100 mg/kg EMA401 for 8 weeks (Table 16, Tables 17A-17C)
  Drug-related toxicity: No drug-related toxicity was observed
[2]; 100 mg/kg EMA401 for 8 weeks, one control animal died
  Deaths during the study: no EMA401-treated animal died
[3]; all animals
  Tumor weight: 0.7215 g
[3]; excluding one outlier
  Tumor weight: 0.6174 (Excluding
[3]; Table 17B (repeated study), control 0.8041
  Tumor weight, mean: 0.5383 g
[3]; Table 17C (both studies pooled, including the outlier), control 0.8763
  Tumor weight, mean: 0.6347 g
[3]; 100 mg/kg EMA401 for 8 weeks, first study, all animals, did not reach statistical significance
  Tumor weight fall versus control: 24%
[3]; 100 mg/kg EMA401 for 8 weeks, first study, one outlier omitted, p=0.036
  Tumor weight decrease versus control: 35%
[3]; EMA401 60 mg/kg, short-term (4 week) low dose study
  Effect on tumor weight: did not reduce tumor weight
[3]; 4 week study, not statistically significant
  Tumor weight lowered versus control: 26%
[3]; after 8 weeks treatment (example 5), significant
  Tumor weight lowered versus control: 33%
[3]; EMA (60 mg/kg)
  BLI data, % of control: 59%
  BLI data, mean: 1.782
[3]; EMA (100 mg/kg)
  BLI data, % of control: 61%
  BLI data, mean: 1.834
[4]; EMA 10 μM, Table 1, 2 h, control 3.618
  cell proliferation, WST1 absorbance (OD value, 450 nm), mean: 2.976
[4]; EMA 50 μM, Table 1, 2 h, control 3.618
  cell proliferation, WST1 absorbance (OD value, 450 nm), mean: 2.957
[4]; EMA401 10 μM, Table 5A, 2×10^4 cells per well, Medium/DMSO 3.348
  cell proliferation, WST1 absorbance (OD value, 450 nm), mean: 2.872
[4]; EMA401 50 μM, Table 5A, 2×10^4 cells per well, Medium/DMSO 3.348
  cell proliferation, WST1 absorbance (OD value, 450 nm), mean: 0.691
[5]; EMA 10 μM, Table 2, 2 h, control 3.214
  cell proliferation, WST1 absorbance (OD value, 450 nm), mean: 1.360
[5]; EMA 50 μM, Table 2, 2 h, control 3.214
  cell proliferation, WST1 absorbance (OD value, 450 nm), mean: 1.41
[5]; EMA401 10 μM, Table 6A, 2×10^4 cells per well, control 3.339
  cell proliferation, WST1 absorbance (OD value, 450 nm), mean: 3.290
[5]; EMA401 50 μM, Table 6A, 2×10^4 cells per well, control 3.339
  cell proliferation, WST1 absorbance (OD value, 450 nm), mean: 0.593
[6]; EMA 10 μM, Table 3, 1 h, Medium/DMSO 3.571
  cell proliferation, WST1 absorbance (OD value, 450 nm), mean: 2.088
[6]; EMA 10 μM, Table 4, 2 h, Medium/DMSO >3.60
  cell proliferation, WST1 absorbance (OD value, 450 nm), mean: 2.910
[6]; EMA 50 μM, Table 3, 1 h, Medium/DMSO 3.571
  cell proliferation, WST1 absorbance (OD value, 450 nm), mean: 2.000
[6]; EMA 50 μM, Table 4, 2 h, Medium/DMSO >3.60
  cell proliferation, WST1 absorbance (OD value, 450 nm), mean: 2.447
[6]; EMA401 10 μM, Table 7A, 2×10^4 cells per well, control 3.535
  cell proliferation, WST1 absorbance (OD value, 450 nm), mean: 3.257
[6]; EMA401 50 μM, Table 7A, 2×10^4 cells per well, control 3.535
  cell proliferation, WST1 absorbance (OD value, 450 nm), mean: 0.541
[7]; 100 mg EMA401 p.o. in men and women, converted with mol wt 507.6
  Serum concentration: 2 µM
[7]; 400 mg/day EMA401 in humans
  Serum concentration: 8 µM
[7]; 600 mg/day p.o., extrapolated (would produce)
  Serum concentration: 12 µM
